Laboratory results taken from patent US20230278983A1, “INDOLE DERIVATIVES AND USES THEREOF FOR TREATING A CANCER” (Universite Claude Bernard Lyon 1, priority 2020, published 2023).

What follows are compounds tested against CK2 (Homo sapiens (Human), UniProt P68400) (assay: Radiometric CK2 kinase assay). Settings: not given.
Format: biochemical

Chain of CK2 (P68400 whole entry): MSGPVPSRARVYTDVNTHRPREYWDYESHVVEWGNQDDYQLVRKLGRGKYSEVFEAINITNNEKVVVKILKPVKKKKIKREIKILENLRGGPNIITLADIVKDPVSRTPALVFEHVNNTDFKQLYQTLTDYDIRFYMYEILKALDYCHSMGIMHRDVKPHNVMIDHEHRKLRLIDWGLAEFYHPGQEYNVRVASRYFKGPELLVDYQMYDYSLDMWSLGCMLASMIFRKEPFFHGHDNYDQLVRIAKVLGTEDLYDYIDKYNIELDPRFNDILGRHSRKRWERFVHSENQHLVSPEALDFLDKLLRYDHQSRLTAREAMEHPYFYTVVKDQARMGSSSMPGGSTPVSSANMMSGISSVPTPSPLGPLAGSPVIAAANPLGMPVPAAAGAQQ

Question: CC(C)COC(=O)c1[nH]c2ccc(F)cc2c1-c1cn(CC2CCN(CCNS(=O)(=O)c3ccc(-c4cccnc4Cl)cc3)CC2)nn1 [AB1133, isobutyl 3-(1-((1-(2-((4-(2-chloropyridin-3-yl)phenyl)sulfonamido)ethyl)piperidin-4-yl)methyl)-1H-1,2,3-triazol-4-yl)-5-fluoro-1H-indole-2-carboxylate] was tested. Which IC50 did it give?
Answer: The IC50 was 26 nM.

Question: Which IC50 does the source give for CC(=O)c1[nH]c2ccc(F)cc2c1-c1cn(CC2CCN(CCNS(=O)(=O)c3ccc(CC(C)C)cc3)CC2)nn1 [AB1135, N-(2-(4-((4-(2-acetyl-5-fluoro-1H-indol-3-yl)-1H-1,2,3-triazol-1-yl)methyl)piperidin-1-yl)ethyl)-4-isobutylbenzenesulfonamide] here?
Answer: Its IC50 is 48 nM.

Question: Which IC50 does the source give for CCCCC(=O)c1[nH]c2ccc(F)cc2c1-c1cn(CC2CCN(CCNS(=O)(=O)c3ccc(CC(C)C)cc3)CC2)nn1 [AB1145, N-(2-(4-((4-(5-fluoro-2-pentanoyl-1H-indol-3-yl)-1H-1,2,3-triazol-1-yl)methyl)piperidin-1-yl)ethyl)-4-isobutylbenzenesulfonamide] here?
Answer: The IC50 was 130 nM.

Question: With COc1cccc(OC)c1-c1ccc(S(=O)(=O)NCCN2CCC(Cn3cc(-c4c(C(=O)OCC(C)C)[nH]c5ccc(F)cc45)nn3)CC2)cc1 [AB1206, isobutyl 3-(1-((1-(2-((2′,6′-dimethoxy-[1,1′-biphenyl])-4-sulfonamido)ethyl)piperidin-4-yl)methyl)-1H-1,2,3-triazol-4-yl)-5-fluoro-1H-indole-2-carboxylate] as the compound, how does the IC50 read?
Answer: Its IC50 is 16 nM.

Question: Which IC50 does the source give for CC(C)COC(=O)c1[nH]c2ccc(F)cc2c1-c1cn(CC2CCN(CCNS(=O)(=O)c3ccc(-c4c(F)cccc4F)cc3)CC2)nn1 [AB1208, isobutyl 3-(1-((1-(2-((2′,6′-difluoro-[1,1′-biphenyl])-4-sulfonamido)ethyl)piperidin-4-yl)methyl)-1H-1,2,3-triazol-4-yl)-5-fluoro-1H-indole-2-carboxylate] here?
Answer: The IC50 was 45 nM.

Question: CC(C)COC(=O)c1[nH]c2ccc(F)cc2c1-c1cn(CC2CCN(CCNS(=O)(=O)c3ccc(-c4ccccc4N(C)C)cc3)CC2)nn1 [AB1209, isobutyl 3-(1-((1-(2-((2′-(dimethylamino)-[1,1′-biphenyl])-4-sulfonamido)ethyl)piperidin-4-yl)methyl)-1H-1,2,3-triazol-4-yl)-5-fluoro-1H-indole-2-carboxylate] was tested. Which IC50 did it give?
Answer: Its IC50 is 70 nM.

Question: How did the IC50 turn out when Cc1noc(C)c1-c1ccc(S(=O)(=O)NCCN2CCC(Cn3cc(-c4c(C(=O)C5CC5)[nH]c5ccc(F)cc45)nn3)CC2)cc1 [AB1285, N-(2-(4-((4-(2-(cyclopropanecarbonyl)-5-fluoro-1H-indol-3-yl)-1H-1,2,3-triazol-1-yl)methyl)piperidin-1-yl)ethyl)-4-(3,5-dimethylisoxazol-4-yl)benzenesulfonamide] was run?
Answer: Its IC50 is 930 nM.

Question: Which IC50 does the source give for CC(=O)c1[nH]c2ccc(F)cc2c1-c1cn(CC2CCN(CCNS(=O)(=O)c3ccc(-c4c(C)noc4C)cc3)CC2)nn1 [AB1286, N-(2-(4-((4-(2-acetyl-5-fluoro-1H-indol-3-yl)-1H-1,2,3-triazol-1-yl)methyl)piperidin-1-yl)ethyl)-4-(3,5-dimethylisoxazol-4-yl)benzenesulfonamide] here?
Answer: The IC50 was 430 nM.

Question: With CC(=O)c1[nH]c2ccc(F)cc2c1-c1cn(CC2CCN(CCNS(=O)(=O)c3ccc(-c4c(F)cccc4F)cc3)CC2)nn1 [AB1288, N-(2-(4-((4-(2-acetyl-5-fluoro-1H-indol-3-yl)-1H-1,2,3-triazol-1-yl)methyl)piperidin-1-yl)ethyl)-2′,6′-difluoro-[1,1′-biphenyl]-4-sulfonamide] as the compound, how does the IC50 read?
Answer: The IC50 was 78 nM.

Question: Which IC50 does the source give for COCc1ccccc1-c1ccc(S(=O)(=O)NCCN2CCC(Cn3cc(-c4c(C(=O)OCC(C)C)[nH]c5ccc(F)cc45)nn3)CC2)cc1 [AB1303] here?
Answer: The IC50 was 33 nM.

Same assay, conditions: compound at 0.05 μM; ATP 10 μM

Question: For COc1ccccc1-c1ccc(S(=O)(=O)NCCN2CCC(Cn3cc(-c4c(C(=O)OCC(C)C)[nH]c5ccc(F)cc45)nn3)CC2)cc1 [AB1205, isobutyl 5-fluoro-3-(1-((1-(2-((2′-methoxy-[1,1′-biphenyl])-4-sulfonamido)ethyl)piperidin-4-yl)methyl)-1H-1,2,3-triazol-4-yl)-1H-indole-2-carboxylate], which inhibition at 0.05 µM is on record?
Answer: Its inhibition at 0.05 µM is 59%.

Question: For CC(C)COC(=O)c1[nH]c2ccc(F)cc2c1-c1cn(CC2CCN(CCNS(=O)(=O)c3ccc(-c4cccnc4F)cc3)CC2)nn1 [AB1207, isobutyl 5-fluoro-3-(1-((1-(2-((4-(2-fluoropyridin-3-yl)phenyl)sulfonamido)ethyl)piperidin-4-yl)methyl)-1H-1,2,3-triazol-4-yl)-1H-indole-2-carboxylate], which inhibition at 0.05 µM is on record?
Answer: Its inhibition at 0.05 µM is 61%.

Question: How did the inhibition at 0.05 µM turn out when O=C(c1[nH]c2ccc(F)cc2c1-c1cn(CC2CCN(CCNS(=O)(=O)c3ccc(-c4cccnc4Cl)cc3)CC2)nn1)C1CC1 [AB1232, 4-(2-chloropyridin-3-yl)-N-(2-(4-((4-(2-(cyclopropanecarbonyl)-5-fluoro-1H-indol-3-yl)-1H-1,2,3-triazol-1-yl)methyl)piperidin-1-yl)ethyl)benzenesulfonamide] was run?
Answer: Its inhibition at 0.05 µM is 16%.

Question: For CCCC(=O)c1[nH]c2ccc(F)cc2c1-c1cn(CC2CCN(CCNS(=O)(=O)c3ccc(-c4cccnc4Cl)cc3)CC2)nn1 [AB1233, N-(2-(4-((4-(2-butyryl-5-fluoro-1H-indol-3-yl)-1H-1,2,3-triazol-1-yl)methyl)piperidin-1-yl)ethyl)-4-(2-chloropyridin-3-yl)benzenesulfonamide], which inhibition at 0.05 µM is on record?
Answer: The inhibition at 0.05 µM was 17%.

Same assay, conditions: compound at 0.10 μM; ATP 10 μM

Question: How did the inhibition at 0.1 µM turn out when CC(C)Cc1ccc(S(=O)(=O)NCCN2CCC(Cn3cc(-c4c(C(=O)N5CCOCC5)[nH]c5ccc(F)cc45)nn3)CC2)cc1 [AB1132, N-(2-(4-((4-(5-fluoro-2-(morpholine-4-carbonyl)-1H-indol-3-yl)-1H-1,2,3-triazol-1-yl)methyl)piperidin-1-yl)ethyl)-4-isobutylbenzenesulfonamide] was run?
Answer: The inhibition at 0.1 µM was 4%.

Question: Which inhibition at 0.1 µM does the source give for CC(C)COC(=O)c1[nH]c2ccc(F)cc2c1-c1cn(CC2CCN(CCNS(=O)(=O)c3ccc(-c4ccc(C#N)cc4)cc3)CC2)nn1 [AB1134, isobutyl 3-(1-((1-(2-((4′-cyano-[1,1′-biphenyl])-4-sulfonamido)ethyl)piperidin-4-yl)methyl)-1H-1,2,3-triazol-4-yl)-5-fluoro-1H-indole-2-carboxylate] here?
Answer: The inhibition at 0.1 µM was 5%.

Question: How did the inhibition at 0.1 µM turn out when CC(C)C(=O)c1[nH]c2ccc(F)cc2c1-c1cn(CC2CCN(CCNS(=O)(=O)c3ccc(-c4cccnc4Cl)cc3)CC2)nn1 [AB1282, 4-(2-chloropyridin-3-yl)-N-(2-(4-((4-(5-fluoro-2-isobutyryl-1H-indol-3-yl)-1H-1,2,3-triazol-1-yl)methyl)piperidin-1-yl)ethyl)benzenesulfonamide] was run?
Answer: The inhibition at 0.1 µM was 15%.

Question: How did the inhibition at 0.1 µM turn out when CC(C)CC(=O)c1[nH]c2ccc(F)cc2c1-c1cn(CC2CCN(CCNS(=O)(=O)c3ccc(-c4cccnc4Cl)cc3)CC2)nn1 [AB1284, 4-(2-chloropyridin-3-yl)-N-(2-(4-((4-(5-fluoro-2-(3-methylbutanoyl)-1H-indol-3-yl)-1H-1,2,3-triazol-1-yl)methyl)piperidin-1-yl)ethyl)benzenesulfonamide] was run?
Answer: Its inhibition at 0.1 µM is 15%.

Question: Which inhibition at 0.1 µM does the source give for CC(C)Cc1ccc(S(=O)(=O)NCCN2CCC(Cn3cc(-c4c(C(=O)c5cccnc5)[nH]c5ccc(F)cc45)nn3)CC2)cc1 [AB1301, N-(2-(4-((4-(5-fluoro-2-nicotinoyl-1H-indol-3-yl)-1H-1,2,3-triazol-1-yl)methyl)piperidin-1-yl)ethyl)-4-isobutylbenzenesulfonamide] here?
Answer: Its inhibition at 0.1 µM is 3%.

Question: For CCC(C)C(=O)c1[nH]c2ccc(F)cc2c1-c1cn(CC2CCN(CCNS(=O)(=O)c3ccc(CC(C)C)cc3)CC2)nn1 (stereo not drawn) [AB1302, N-(2-(4-((4-(5-fluoro-2-(2-methylbutanoyl)-1H-indol-3-yl)-1H-1,2,3-triazol-1-yl)methyl)piperidin-1-yl)ethyl)-4-isobutylbenzenesulfonamide], which inhibition at 0.1 µM is on record?
Answer: The inhibition at 0.1 µM was 10%.

Question: CCCC(=O)c1[nH]c2ccc(F)cc2c1-c1cn(CC2CCN(CCNS(=O)(=O)Cc3ccc(C(F)(F)F)cc3)CC2)nn1 [AB1307, N-(2-(4-((4-(2-butyryl-5-fluoro-1H-indol-3-yl)-1H-1,2,3-triazol-1-yl)methyl)piperidin-1-yl)ethyl)-1-(4-(trifluoromethyl)phenyl)methanesulfonamide] was tested. Which inhibition at 0.1 µM did it give?
Answer: Its inhibition at 0.1 µM is 12%.

Same assay, conditions: inhibition of CK2 activity; ATP 10 μM

Question: Which IC50 does the source give for Cc1ccc(CS(=O)(=O)NCCN2CCC(Cn3cc(-c4c(C(=O)OCC(C)C)[nH]c5ccc(F)cc45)nn3)CC2)cc1 [AB1210, isobutyl 5-fluoro-3-(1-((1-(2-((p-tolylmethyl)sulfonamido)ethyl)piperidin-4-yl)methyl)-1H-1,2,3-triazol-4-yl)-1H-indole-2-carboxylate] here?
Answer: The IC50 was 85 nM.

Question: For CC(C)Cc1ccc(S(=O)(=O)NCCN2CCC(Cn3cc(-c4c(C=O)[nH]c5ccc(F)cc45)nn3)CC2)cc1 [AB1235, N-(2-(4-((4-(5-fluoro-2-formyl-1H-indol-3-yl)-1H-1,2,3-triazol-1-yl)methyl)piperidin-1-yl)ethyl)-4-isobutylbenzenesulfonamide], which IC50 is on record?
Answer: Its IC50 is 90 nM.

Question: CC(=O)c1[nH]c2ccc(F)cc2c1-c1cn(CC2CCN(CCNS(=O)(=O)c3ccc(-c4cccnc4F)cc3)CC2)nn1 [AB1289, N-(2-(4-((4-(2-acetyl-5-fluoro-1H-indol-3-yl)-1H-1,2,3-triazol-1-yl)methyl)piperidin-1-yl)ethyl)-4-(2-fluoropyridin-3-yl)benzenesulfonamide] was tested. Which IC50 did it give?
Answer: The IC50 was 440 nM.

Question: Which IC50 does the source give for O=C(c1[nH]c2ccc(F)cc2c1-c1cn(CC2CCN(CCNS(=O)(=O)N3CCC(c4c(F)cccc4F)CC3)CC2)nn1)C1CC1 [AB1304, N-(2-(4-((4-(2-(cyclopropanecarbonyl)-5-fluoro-1H-indol-3-yl)-1H-1,2,3-triazol-1-yl)methyl)piperidin-1-yl)ethyl)-4-(2,6-difluorophenyl)piperidine-1-sulfonamide] here?
Answer: The IC50 was 500 nM.

Question: Which IC50 does the source give for O=C(c1[nH]c2ccc(F)cc2c1-c1cn(CC2CCN(CCNS(=O)(=O)Cc3ccc(C(F)(F)F)cc3)CC2)nn1)C1CC1 [AB1305, N-(2-(4-((4-(2-(cyclopropanecarbonyl)-5-fluoro-1H-indol-3-yl)-1H-1,2,3-triazol-1-yl)methyl)piperidin-1-yl)ethyl)-1-(4-(trifluoromethyl)phenyl)methanesulfonamide] here?
Answer: The IC50 was 480 nM.

Question: With CC(C)CC(=O)c1[nH]c2ccc(F)cc2c1-c1cn(CC2CCN(CCNS(=O)(=O)Cc3ccc(C(F)(F)F)cc3)CC2)nn1 [AB1306, N-(2-(4-((4-(5-fluoro-2-(3-methylbutanoyl)-1H-indol-3-yl)-1H-1,2,3-triazol-1-yl)methyl)piperidin-1-yl)ethyl)-1-(4-(trifluoromethyl)phenyl)methanesulfonamide] as the compound, how does the IC50 read?
Answer: Its IC50 is 450 nM.
